According to PubChem BioAssay AID1963830 (Molecular Pharmacology Branch, DTP, NCI, 2024):

Tested on: 922993-354-T-J3-PDC complex spheroid viability
Experiment: Anticancer human tumor 922993-354-T-J3-PDC patient-derived endometrial carcinoma cell line growth inhibition [POLQ]
Settings: for IC50: curve of first compound; for viability, T/C: stronger effect = lower value
Protocol: Multicellular complex tumor spheroid response to Polymerase (POL) inhibitors (novobiocin, ART-558, RP6685) in combination with a variety of drugs and investigational agents in selected tumor cell lines
The POL inhibitors (novobiocin, ART-558, and RP6685) were evaluated both individually and in combination with standard of care and investigational anticancer small molecules within a complex spheroid model of solid tumors. . Complex spheroids include a stromal component modeled by human endothelial cells (HUVEC) and fibroblasts modeled by human mesenchymal stem cells (MSCs). The concentration ranges selected for each drug and investigational agent were based upon clinically achievable concentrations if the clinical Cmax of the agent was known.
Compounds. The drugs and investigational agents: novobiocin (NSC847541), ART-558 (NSC835418), RP-6685 (NSC848927), peposertib (NSC802822), ceralasertib (NSC780249), elimusertib (NSC800525), camonsertib (NSC841442), AZD-1390 (NSC803789), olaparib (NSC753686), talazoparib (NSC767125), rucaparib (NSC756644), sotorasib (NSC818433), MRTX-1133 (NSC836407), SN-38 (NSC673596), topotecan (NSC609699), epotoside (NSC141540), doxorubicin (NSC123127), gemcitabine (NSC613327), 5-fluorouracil (NSC19893), paclitaxel (NSC125973), vemurafenib (NSC761431), MSA-2 (NSC828583), SN-011 (NSC837082), adavosertib (NSC754352), prexasertib (NSC758257), carboplatin (NSC241240) and oxaliplatin (NSC266046), were obtained from the National Cancer Institute (NCI) Developmental Therapeutics Program Chemical Repository (21). The FDA-approved anticancer drug set is available from the Developmental Therapeutics Program at https://dtp.cancer.gov/organization/dscb/obtaining/. […] The stock solutions were prepared in dimethyl sulfoxide (DMSO, Sigma-Aldrich, St. Louis, MO, cat. D2650), except for the platinum compounds which were prepared in saline (Quality Biological, Gaithersburg, MD, cat. 114-055-101), at 800-fold the tested concentration and stored at -70 degrees C prior to their use. All drugs and investigational agents were tested over a range starting from a high concentration at or near the clinical Cmax and decreasing in half-log increments. If the clinical Cmax for an agent had not been determined, the highest concentration tested was 10 microM, except for SN-38, which was tested at a high concentration of 1 microM.
Cell Culture. All cells were maintained in an incubator at 37 degrees C and 5% CO2 with 95% humidity. The PDC lines were cultured according to standard operating procedures established by the NCI PDMR (https://pdmr.cancer.gov). Table 3 of the manuscript, lists the cell lines along with the number of the three cell types plated to form the mct-spheroids and media for tumor cell growth. After thawing, all PDC lines, except 997537-175-T-J1-PDC and 415267-285-R-J2-PDC, were cultured in Matrigel-coated flasks prepared with a working solution of 1X Ham's F-12 nutrient mix, without supplementation (Thermo Fisher Scientific, cat. 11765054), 100 U/mL penicillin-streptomycin (Thermo Fisher Scientific, cat. 15140122), and 2.5% Matrigel (Corning Inc., Corning, NY, cat. 354248) for the first three passages. The two PDC lines 997537-175-T-J1-PDC and 415267-285-R-J2-PDC were cultured on uncoated flasks. The 857933-349-R-J2-PDC line was cultured in 6C/Colon 1B media containing advanced DMEM/F-12 (Thermo Fisher Scientific, cat. 12634028), 10 mM HEPES (Thermo Fisher Scientific, cat. 15630080), 1X GlutaMAX supplement (Thermo Fisher Scientific, cat. 35050061), 0.1 mg/mL primocin (InvivoGen, San Diego, CA, cat. ant-pm-2), 10% defined fetal bovine serum, heat inactivated (HyClone Laboratories Inc., Logan, UT, cat. SH30070.03HI), 50% L-WRN conditioned media (ATCC, cat. CRL-3276), 1.25 mM N-Acetyl-L-cysteine (Sigma-Aldrich, cat. A9165), 10 mM nicotinamide (Sigma-Aldrich, cat. N0636), 1X B-27 supplement (Thermo Fisher Scientific, cat. 17504044), 1X N-2 supplement (Thermo Fisher Scientific, cat. […]

[1] = second compound 0.0316 µM, first compound 0.0316 µM
[2] = second compound 0.0316 µM, first compound 0.1 µM
[3] = second compound 0.1 µM, first compound 0.0316 µM
[4] = second compound 0.1 µM, first compound 0.1 µM
[5] = second compound 0.316 µM, first compound 0.0316 µM
[6] = second compound 0.316 µM, first compound 0.1 µM
[7] = second compound 1 µM, first compound 0.0316 µM
[8] = second compound 1 µM, first compound 0.1 µM
[9] = second compound 3.16 µM, first compound 0.0316 µM
[10] = second compound 3.16 µM, first compound 0.1 µM
[11] = second compound 10 µM, first compound 0.0316 µM
[12] = second compound 10 µM, first compound 0.1 µM
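Further: spheroids exposed to the agents for one week.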
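Wherever viability, T/C is given: 100% = DMSO vehicle control wells.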

`CC[C@@]1(O)C(=O)OCc2c1cc1n(c2=O)Cc2cc3c(CN(C)C)c(O)ccc3nc2-1` + Cc1cccc(N(C)C(=O)C2C(O)CCN2c2nc(C)cc(C(F)(F)F)c2C#N)c1 gave an IC50 (second compound 0.0316 µM) of 90.6 nM, an IC50 (second compound 0.1 µM) of over 100 nM and an IC50 (second compound 0.316 µM) of over 100 nM. The IC50 (second compound 1 µM) was over 100 nM, the IC50 (second compound 3.16 µM) was over 100 nM and the IC50 (second compound 10 µM) was 48.5 nM. For the same compound, the viability, T/C (second compound 0.0316 µM, first compound 0.000316 µM) was 108%, the viability, T/C (second compound 0.0316 µM, first compound 0.001 µM) was 100% and the viability, T/C (second compound 0.0316 µM, first compound 0.00316 µM) was 104%. The viability, T/C (second compound 0.0316 µM, first compound 0.01 µM) was 98.6%, the viability, T/C [1] was 88.2% and the viability, T/C [2] was 46.3%. The viability, T/C (second compound 0.1 µM, first compound 0.000316 µM) was 109%, the viability, T/C (second compound 0.1 µM, first compound 0.001 µM) was 101% and the viability, T/C (second compound 0.1 µM, first compound 0.00316 µM) was 103%. The viability, T/C (second compound 0.1 µM, first compound 0.01 µM) was 102%, the viability, T/C [3] was 90% and the viability, T/C [4] was 65.5%. It also gave a viability, T/C (second compound 0.316 µM, first compound 0.000316 µM) of 110%, a viability, T/C (second compound 0.316 µM, first compound 0.001 µM) of 104% and a viability, T/C (second compound 0.316 µM, first compound 0.00316 µM) of 94.9%. The viability, T/C (second compound 0.316 µM, first compound 0.01 µM) was 102%, the viability, T/C [5] was 87% and the viability, T/C [6] was 59.1%. It also gave a viability, T/C (second compound 1 µM, first compound 0.000316 µM) of 104%, a viability, T/C (second compound 1 µM, first compound 0.001 µM) of 99.5% and a viability, T/C (second compound 1 µM, first compound 0.00316 µM) of 104%. For the same compound, the viability, T/C (second compound 1 µM, first compound 0.01 µM) was 99.7%, the viability, T/C [7] was 86% and the viability, T/C [8] was 57.3%. The viability, T/C (second compound 3.16 µM, first compound 0.000316 µM) was 108%, the viability, T/C (second compound 3.16 µM, first compound 0.001 µM) was 102% and the viability, T/C (second compound 3.16 µM, first compound 0.00316 µM) was 94.1%. The viability, T/C (second compound 3.16 µM, first compound 0.01 µM) was 93%, the viability, T/C [9] was 77.1% and the viability, T/C [10] was 49.9%. It also gave a viability, T/C (second compound 10 µM, first compound 0.000316 µM) of 101%, a viability, T/C (second compound 10 µM, first compound 0.001 µM) of 99.2% and a viability, T/C (second compound 10 µM, first compound 0.00316 µM) of 99.2%. It also gave a viability, T/C (second compound 10 µM, first compound 0.01 µM) of 79.1%, a viability, T/C [11] of 68.3% and a viability, T/C [12] of 23.7%.
Work on `Nc1ccn(C2OC(CO)C(O)C2(F)F)c(=O)n1` (centres undefined) + Cc1cccc(N(C)C(=O)C2C(O)CCN2c2nc(C)cc(C(F)(F)F)c2C#N)c1 yielded an IC50 (second compound 0.0316 µM) of under 31.6 nM, an IC50 (second compound 0.1 µM) of under 31.6 nM and an IC50 (second compound 0.316 µM) of under 31.6 nM. For the same compound, the IC50 (second compound 1 µM) was under 31.6 nM, the IC50 (second compound 3.16 µM) was under 31.6 nM and the IC50 (second compound 10 µM) was under 31.6 nM. It also gave a viability, T/C [1] of 11.1%, a viability, T/C [2] of 10.3% and a viability, T/C (second compound 0.0316 µM, first compound 0.316 µM) of 9.57%. The viability, T/C (second compound 0.0316 µM, first compound 1 µM) was 11.8%, the viability, T/C (second compound 0.0316 µM, first compound 3.16 µM) was 9.18% and the viability, T/C (second compound 0.0316 µM, first compound 10 µM) was 9.18%. For the same compound, the viability, T/C [3] was 14.8%, the viability, T/C [4] was 10.9% and the viability, T/C (second compound 0.1 µM, first compound 0.316 µM) was 11.3%. The viability, T/C (second compound 0.1 µM, first compound 1 µM) was 10.7%, the viability, T/C (second compound 0.1 µM, first compound 3.16 µM) was 10.7% and the viability, T/C (second compound 0.1 µM, first compound 10 µM) was 11%. It also gave a viability, T/C [5] of 11.9%, a viability, T/C [6] of 11.5% and a viability, T/C (second compound 0.316 µM, first compound 0.316 µM) of 11.9%. The viability, T/C (second compound 0.316 µM, first compound 1 µM) was 9.92%, the viability, T/C (second compound 0.316 µM, first compound 3.16 µM) was 8.14% and the viability, T/C (second compound 0.316 µM, first compound 10 µM) was 9.97%. The viability, T/C [7] was 12.6%, the viability, T/C [8] was 9.47% and the viability, T/C (second compound 1 µM, first compound 0.316 µM) was 8.22%. For the same compound, the viability, T/C (second compound 1 µM, first compound 1 µM) was 8.9%, the viability, T/C (second compound 1 µM, first compound 3.16 µM) was 7.29% and the viability, T/C (second compound 1 µM, first compound 10 µM) was 10.3%. The viability, T/C [9] was 11.3%, the viability, T/C [10] was 10.2% and the viability, T/C (second compound 3.16 µM, first compound 0.316 µM) was 10.6%. The viability, T/C (second compound 3.16 µM, first compound 1 µM) was 7.56%, the viability, T/C (second compound 3.16 µM, first compound 3.16 µM) was 9.43% and the viability, T/C (second compound 3.16 µM, first compound 10 µM) was 10.6%. It also gave a viability, T/C [11] of 7.43%, a viability, T/C [12] of 8.87% and a viability, T/C (second compound 10 µM, first compound 0.316 µM) of 7.1%. The viability, T/C (second compound 10 µM, first compound 1 µM) was 6.45%, the viability, T/C (second compound 10 µM, first compound 3.16 µM) was 8.61% and the viability, T/C (second compound 10 µM, first compound 10 µM) was 8.92%.
